Seven molecules from the supplement of paper PMC11061612 can be followed below.

Holding throughout (experiment): Bliss excess, mean over the matrix (fraction); higher = more synergy
The subject of one experiment is ES8 (Ewing's Sarcoma). The procedure, abridged: (§1)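 Bliss excess equals the observed combination effect minus the expected value EA + EB − EA·EB, where EA and EB are the effects of each agent alone. Combination Emax is the second-highest inhibition within the matrix. Inhibition was scaled from CellTiter-Glo 2.0 luminescence, with 0 set by vehicle wells and 1 by blank wells, after 72 hours of two-drug dosing of cells plated in 1536-well plates.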

Experiment [1] concerns K-562 (Chronic Myelogenous Leukemia). The procedure, abridged:
as §1

Experiment [2] deals with DND-41 (T-Lymphoblastic Leukemia). The method, boiled down: as §1
In experiment [3] the test system is MS751 (Cervical Carcinoma). The method, boiled down: as §1
The subject of experiment [4] is P12-ICHIKAWA (T-Lymphoblastic Leukemia). The method, boiled down:
as §1

Experiment [5] deals with BFTC-905 (Bladder Carcinoma). The procedure, abridged:
as §1

In experiment [6] the test system is MOLT-16 (T-Lymphoblastic Leukemia). The procedure, abridged:
as §1

Experiment [7] concerns SW1417 (Colorectal Carcinoma). The procedure, abridged:
as §1

The test system of another experiment is LN-18 (Glioblastoma). The method, boiled down:
as §1

The test system of experiment [8] is SU-DHL-8 (B-Cell Non-Hodgkin's Lymphoma). The procedure, abridged: as §1
The test system of experiment [9] is KARPAS-45 (T-Lymphoblastic Leukemia). The method, boiled down: as §1
Experiment [10] deals with PANC-08-13 (Pancreatic Carcinoma). The method, boiled down: as §1
Experiment [11] has as its system HL-60 (Acute Myeloid Leukemia). The method, boiled down:
as §1

For experiment [12], the system named is KCL-22 (Chronic Myelogenous Leukemia). The procedure, abridged:
as §1

Experiment [13] relates to GR-ST (B-Lymphoblastic Leukemia). The procedure, abridged:
as §1

A further experiment concerns WIL2-NS (Non-Cancerous). The method, boiled down: as §1
The subject of experiment [14] is SR (Other Blood Carcinomas). The method, boiled down:
as §1

Experiment [15] concerns BL-41 (Burkitt's Lymphoma). The method, boiled down: as §1
The test system of the next experiment is NCI-H2818 (Mesothelioma). The method, boiled down:
as §1

The next experiment deals with ES1 (Ewing's Sarcoma). The method, boiled down: as §1

As for `Cn1cnc2c(F)c(Nc3ccc(Br)cc3Cl)c(C(=O)NOCCO)cc21` [Selumetinib] + C[C@@H]1COCCN1C2=NC(=NC(=C2)C3(CC3)[S@](=N)(=O)C)C4=C5C=CNC5=NC=C4 [AZD6738] (first compound max 10 µM, 7x7, partner max 10 µM), the Bliss excess with ES8 (Ewing's Sarcoma) is -0.069; in experiment [1], -0.0116; in experiment [2], -0.0233; in experiment [3], 0.0516; in experiment [4], 0.0286; in experiment [5], -0.0351. Further, the Bliss excess in experiment [6] is 0.0063; in [7] it was 0.0363; in the experiment on LN-18 (Glioblastoma) it was -0.0318; in experiment [8], -0.0454; in experiment [9], 0.0047; in [10], -0.0351. For the same molecule, the Bliss excess in experiment [11] is -0.039; in experiment [12] it was -0.0129; in experiment [13] it was -0.0301; in the experiment on WIL2-NS (Non-Cancerous) it was -0.033; in experiment [14] it was -0.0169; in [15], -0.0299. For the same molecule, the Bliss excess in the experiment on NCI-H2818 (Mesothelioma) is -0.0144; in the experiment with ES1 (Ewing's Sarcoma) it was -0.0257.

For `Cn1cnc2c(F)c(Nc3ccc(Br)cc3Cl)c(C(=O)NOCCO)cc21` [Selumetinib] + C=CCn1c(=O)c2cnc(Nc3ccc(N4CCN(C)CC4)cc3)nc2n1-c1cccc(C(C)(C)O)n1 [AZD1775] (first compound max 10 µM, partner max 1 µM), the Bliss excess is -0.185 with ES8 (Ewing's Sarcoma); 0.0752 in [1]; -0.0248 in experiment [2]; 0.0171 in experiment [3]; 0.0595 in experiment [4]; -0.0654 in experiment [5]. The Bliss excess in [6] was 0.0252; in experiment [7], 0.0387; in the experiment on LN-18 (Glioblastoma) it was -0.0103; in experiment [8], -0.0846; in experiment [9], 0.0001; in [10], -0.0849. The Bliss excess in experiment [11] was -0.0732; in experiment [12] it was 0.0242; in experiment [13] it was -0.0368; in the experiment with WIL2-NS (Non-Cancerous), 0.0363; in [14] it was -0.0132; in experiment [15], -0.0162. Besides, the results for the Bliss excess in the experiment with NCI-H2818 (Mesothelioma) and in the experiment on ES1 (Ewing's Sarcoma) were -0.0498 and -0.0255, respectively.

Consider `NC1(C(=O)N[C@@H](CCO)c2ccc(Cl)cc2)CCN(c2ncnc3[nH]ccc23)CC1` [Capivasertib] + CCN(CCO)CCCOc1ccc2c(Nc3cc(CC(=O)Nc4cccc(F)c4)[nH]n3)ncnc2c1 [AZD2811] (first compound max 10 µM, 7x7, partner max 1 µM), for which the Bliss excess was -0.0394 in the experiment with ES8 (Ewing's Sarcoma); -0.0151 in [1]; 0.0071 in experiment [2]; 0.0515 in experiment [3]; -0.014 in experiment [4]; -0.0462 in experiment [5]. For the same molecule, the Bliss excess in experiment [6] is -0.0183; in experiment [7], -0.0478; in the experiment with LN-18 (Glioblastoma), -0.022; in experiment [8], 0.0078; in [9] it was -0.0426; in experiment [10], -0.0015. Moreover, the Bliss excess is -0.0819 in experiment [11]; 0.0544 in experiment [12]; 0.0222 in [13]; -0.0431 in the experiment on WIL2-NS (Non-Cancerous); -0.0053 in experiment [14]; -0.123 in experiment [15]. The Bliss excess is -0.0676 in the experiment with NCI-H2818 (Mesothelioma) and -0.0207 with ES1 (Ewing's Sarcoma).

Take `CN(CCO)CC[C@H](CSc1ccccc1)Nc1ccc(S(=O)(=O)NC(=O)c2ccc(N3CCC([C@@H](O)c4ccccc4-c4ccc(Cl)cc4)CC3)cc2)cc1S(=O)(=O)C(F)(F)F` [AZD4320] + C=CCn1c(=O)c2cnc(Nc3ccc(N4CCN(C)CC4)cc3)nc2n1-c1cccc(C(C)(C)O)n1 [AZD1775] (first compound max 1 µM, partner max 1 µM): the Bliss excess in the experiment on ES8 (Ewing's Sarcoma) was 0.0959; in [1], 0.0582; in [2], 0.049; in experiment [3], -0.0494; in experiment [4] it was 0.0899; in experiment [5], -0.029. Further, the Bliss excess in experiment [6] is 0.0417; in experiment [7] it was -0.106; in the experiment on LN-18 (Glioblastoma), 0.0152; in experiment [8], 0.0017; in experiment [9], -0.0041; in experiment [10] it was -0.0019. The Bliss excess in experiment [11] was 0.0574; in [12], 0.0022; in [13], -0.0585; with WIL2-NS (Non-Cancerous), 0.0252; in experiment [14] it was 0.254; in experiment [15] it was 0.0361. For the same molecule, the Bliss excess is -0.0586 in the experiment with NCI-H2818 (Mesothelioma) and 0.0958 in the experiment on ES1 (Ewing's Sarcoma).

Regarding `CN(CCO)CC[C@H](CSc1ccccc1)Nc1ccc(S(=O)(=O)NC(=O)c2ccc(N3CCC([C@@H](O)c4ccccc4-c4ccc(Cl)cc4)CC3)cc2)cc1S(=O)(=O)C(F)(F)F` [AZD4320] + C1CN(CCC1(C(=O)N[C@@H](CCO)C2=CC=C(C=C2)Cl)N)C3=NC=NC4=C3C=CN4 [Capivasertib] (first compound max 1 µM, 7x7, partner max 3 µM), the Bliss excess in the experiment with ES8 (Ewing's Sarcoma) is -0.0427; in experiment [1], -0.0155; in [2], -0.0205; in experiment [3], -0.009; in [4] it was 0.0119; in experiment [5], -0.0552. The Bliss excess in [6] was -0.0201; in [7] it was -0.0671; in the experiment with LN-18 (Glioblastoma), -0.053; in [8], -0.0454; in experiment [9], 0.0265; in experiment [10], -0.0374. Further, the Bliss excess was -0.0438 in experiment [11]; -0.0075 in experiment [12]; 0.0039 in experiment [13]; 0.0219 with WIL2-NS (Non-Cancerous); 0.095 in experiment [14]; -0.0146 in [15]. Further, the Bliss excess with NCI-H2818 (Mesothelioma) was -0.126; in the experiment with ES1 (Ewing's Sarcoma), 0.0027.

With `CC1(C)CCC(CN2CCN(c3ccc(C(=O)NS(=O)(=O)c4ccc(NCC5CCOCC5)c([N+](=O)[O-])c4)c(Oc4cnc5[nH]ccc5c4)c3)CC2)=C(c2ccc(Cl)cc2)C1` [Venetoclax] + C1CN(CCC1(C(=O)N[C@@H](CCO)C2=CC=C(C=C2)Cl)N)C3=NC=NC4=C3C=CN4 [Capivasertib] (first compound max 1 µM, 7x7, partner max 3 µM), the Bliss excess in the experiment with ES8 (Ewing's Sarcoma) was -0.0933; in experiment [1], -0.0902; in [2], 0.0019; in [3] it was -0.0161; in experiment [4], 0.0039; in experiment [5] it was -0.0288. Further, the Bliss excess is 0.0937 in experiment [6]; -0.0744 in experiment [7]; -0.0374 in the experiment with LN-18 (Glioblastoma); -0.0918 in experiment [8]; 0.0512 in experiment [9]; -0.0608 in experiment [10]. The Bliss excess in experiment [11] is 0.0198; in experiment [12] it was 0.0015; in experiment [13], -0.0382; in the experiment on WIL2-NS (Non-Cancerous) it was -0.0145; in experiment [14], -0.0142; in experiment [15], -0.0058. Further, the values for the Bliss excess in the experiment on NCI-H2818 (Mesothelioma) and in the experiment on ES1 (Ewing's Sarcoma) were -0.0628 and 0.0278, respectively.

`COc1nnc2ccc(N3CCC(c4ccc(OCCN5CCN(C)C(=O)[C@H]5C)cc4)CC3)nn12` [AZD5153] + C=CCn1c(=O)c2cnc(Nc3ccc(N4CCN(C)CC4)cc3)nc2n1-c1cccc(C(C)(C)O)n1 [AZD1775] (first compound max 1 µM, partner max 1 µM): the Bliss excess with ES8 (Ewing's Sarcoma) is -0.0563; in experiment [1], -0.0718; in experiment [2], -0.0027; in experiment [3], 0.064; in experiment [4] it was 0.0148; in [5], -0.0559. Also, the Bliss excess is -0.0021 in experiment [6]; -0.0254 in experiment [7]; -0.0502 in the experiment on LN-18 (Glioblastoma); 0.0014 in [8]; -0.0088 in experiment [9]; 0.0108 in [10]. Also, the Bliss excess is -0.0519 in [11]; -0.0578 in experiment [12]; -0.0897 in experiment [13]; -0.105 in the experiment on WIL2-NS (Non-Cancerous); -0.074 in experiment [14]; -0.0454 in [15]. The values for the Bliss excess in the experiment with NCI-H2818 (Mesothelioma) and in the experiment on ES1 (Ewing's Sarcoma) were 0.0033 and -0.0845, respectively.
